Measurements reported in ChEMBL document CHEMBL5143534, “Synthesis and biological evaluation of BU-4664L derivatives as potential anticancer agents” (2022).

Tests used:
PC-3 = experiment: Antiproliferative activity against human PC-3 cells assessed as cell growth inhibition by MTT assay; assay type: functional
NCI-H460 = experiment: Antiproliferative activity against human NCI-H460 cells assessed as cell growth inhibition by MTT assay; assay type: functional

Structure (SMILES)	GI50 (PC-3)	GI50 (NCI-H460)
COc1cc(CN2C(=O)c3ccccc3Nc3cnc(Cl)nc32)cc(OC)c1OC	8.23 µM	
COc1ccc(CN2C(=O)c3ccccc3Nc3ccc(OC)cc32)cc1	10.6 µM	
COc1ccc2c(c1)N(Cc1ccc(OC)c(OC)c1)C(=O)c1ccccc1N2	12.5 µM	44.4 µM
COc1ccc2c(c1)N(C/C=C(\C)CCC=C(C)C)C(=O)c1ccccc1N2	10.8 µM	43.9 µM
O=C1c2ccccc2Nc2cnc(Cl)nc2N1C/C=C/c1ccccc1	12.5 µM	
COc1ccc2c(c1)N(CC=C(C)C)C(=O)c1ccccc1N2	5.66 µM	25.6 µM
CC(C)=CCC/C(C)=C/CN1C(=O)c2ccccc2Nc2cnc(Cl)nc21	7.29 µM	24.3 µM
COc1ccc(CN2C(=O)c3ccccc3Nc3cnc(Cl)nc32)cc1	6.69 µM	
COc1ccc(CN2C(=O)c3ccccc3Nc3cnc(Cl)nc32)cc1OC	8.31 µM	
CC(C)=CCN1C(=O)c2ccccc2Nc2cnc(Cl)nc21	6.12 µM	38.1 µM
CC(C)=CCC/C(C)=C/CC/C(C)=C/CN1C(=O)c2cccc(O)c2Nc2c(O)cc(O)cc21 [DIAZEPINOMICIN]	1.95 µM	13.6 µM
CC(C)=CCC/C(C)=C/CC/C(C)=C/CN1C(=O)c2ccccc2Nc2cnc(Cl)nc21	5.94 µM	19.9 µM
COc1ccc2c(c1)N(Cc1cc(OC)c(OC)c(OC)c1)C(=O)c1ccccc1N2	10.2 µM	34.8 µM
COc1ccc2c(c1)N(C/C=C/c1ccccc1)C(=O)c1ccccc1N2	7.37 µM	36.6 µM
COc1ccc2c(c1)N(C/C=C(\C)CC/C=C(\C)CCC=C(C)C)C(=O)c1ccccc1N2	11 µM	34.4 µM
